{
  "source": "patent US20140123342A1",
  "about": "“Regulation of Stomatal Apertures by Apyrases and Extracellular Nucleotides” (BOARD OF REGENTS, THE UNIVERSITY OF TEXAS SYSTEM, priority 2011, published 2014)",
  "system": "stomata (guard cells) in whole leaves",
  "assay": "Stomatal aperture closure studies, whole leaves in the light",
  "format": "cell-based, Arabidopsis thaliana",
  "settings": "10 μM, 2 h",
  "method": "Stomatal Aperture Studies: Arabidopsis thaliana ecotypes Columbia (Col-0) and Wassilewskija (WS) were used as wild types in this study. Col-0, nia1nia2, atrbohD/F, R2-4A and WS plants were all grown on autoclaved Metro-Mix 200 soil at 22° C. under continuous light. The mutant seeds nia1nia2 nia2-5; CS 2356; Col-0 background) were obtained from Dr. N. M. Crawford (University of California at San Diego) and the mutant seeds atrbohD/F (Col-0 background) were obtained from Dr. J. M. Kwak (University of Maryland). The RNAi mutant apyrase line (R2-4A) is in WS background, so WS ecotype was used as the control wild type for these studies. Leaves from 2 to 3 week old Col-0 plants, or R2-4A and WS plants treated with 4 μM estradiol for 1 week after development of mature basal leaves were used for peel and whole leaf studies. Plants were placed in the dark and watered 24 h before an study. For opening studies, plants were used immediately after 24 h dark treatment and all treatments were done in the dark except for the light treated leaves or peels, thus the control stomata are dark controls. For closure studies, plants were placed in the light 3 h before an study to induce stomatal opening and all treatments were done in the light, thus the control stomata are light controls. For peel studies, epidermal peels were made from the underside of the leaf and treatments were applied to the peels for 1 h. For whole leaf studies, leaves were removed and treatments were applied for 2 h. For each treatment, about 3 or 4 peels collected from different leaves or 3 or 4 different leaves of at least two different plants were floated with the abaxial side up in petri dishes on 3 mL of Arabidopsis leaf buffer consisting of 10 mM KCl, 25 mM MES pH 6.15 (Melotto et al., 2006) and the chemical being tested. For whole leaf studies peels were collected after the treatment.\nFor studies testing the effects of ATPγS, ADPγS, AMPS, RB2, and PPADS (Sigma, St. Louis, Mo., USA) 20 mM stocks were made by dissolving the compounds in de-ionized water. For studies testing the effects of apyrase inhibitors, 7.5 mg/mL of NGXT191 and of inhibitor #13 (Windsor et al., 2002) was dissolved in dimethyl sulfoxide (DMSO) and then applied at a dilution of […] for a final concentration of 0.1% DMSO. ABA (Sigma, St. Louis, Mo., USA) was dissolved in ethanol in 10 mM stocks and then applied at a dilution of 1:1000. The stocks were stored at −20° C. while not in use. The production of the anti-AtAPY1 antibodies used is described by Steinebrunner et al. (2003). The crude immune and pre-immune sera were purified using protein A-Sepharose following the protocol described by Martin (1982) with the slight modification that the buffers used were azide-free. The protein-A purified sera were both used at a 1:1000 dilution in leaf stomatal aperture studies. The concentration of the immune and pre-immune sera, determined by Bradford assay (Bio-Rad), was 10.2 μg/mL and 7.7 μg/mL, respectively.\nAfter treatment, photos of stomata were taken using a light microscope at 20×. Stomatal aperture width was measured using the image processing software ImageJ. Typically, photos were taken of 70 to 90 stomata per treatment of which only 50 stomata were measured for each treatment. For each treatment the ratio of closed stomata (width of 0) to open stomata was determined for all stomata imaged and this ratio was maintained in the 50 stomata that were measured for each treatment. Data shown uses apertures determined as width/length, however data in all studies also obtained as width only and generally width/length and width only data are in agreement with each other. Statistical significance of the measurements for the treatments was determined using the Student's t test in Microsoft Excel.",
  "data": [
    {"smiles": "CC1=CC(=O)CC(C)(C)[C@@]1(O)/C=C/C(C)=C\\C(=O)O", "note": "[ABA, abscisic acid]", "values": [
      {"measurement": "effect on stomatal aperture", "setting": "both estradiol-treated WS wild-type and R2-4A plants", "value": "caused closure"},
      {"measurement": "effect on stomatal aperture", "setting": "whole leaves, light", "value": "induced stomatal closure"}
    ]}
  ]
}
